Tests used:
MIA PaCa-2 [1] = experiment: Antiproliferative activity against human MIA PaCa-2 cells harboring KRAS G12C mutant assessed as growth inhibition measured after 72 hrs by CCK8 assay; format: functional, cell-based
NCI-H1975 = experiment: Antiproliferative activity against human NCI-H1975 cells harboring wild-type KRAS assessed as growth inhibition measured after 72 hrs by SRB assay; format: functional, cell-based; conditions: NCI-H1975, 72 h
[2] = Inhibition of recombinant human N-terminal polyHis-tagged KRAS isoform 2B G12C mutant (Thr2 to Cys185 residues) expressed in Escherichia coli using GTP as substrate measured after 2 hrs by GTPase-glo assay
NCI-H358 = experiment: Antiproliferative activity against human NCI-H358 cells harboring KRAS G12C mutant assessed as growth inhibition measured after 72 hrs by SRB assay; format: functional, cell-based
GTPase KRas = GTPase KRas (Homo sapiens, UniProt P01116); experiment: Inhibition of recombinant human N-terminal His-tagged KRAS (2 to 185 residues) expressed in baculovirus infected Sf9 insect cells using GTP as substrate measured after 2 hrs by GTPase-glo assay
A549 [3] = experiment: Antiproliferative activity against human A549 cells harboring KRAS G12S mutant assessed as growth inhibition measured after 72 hrs by SRB assay; format: functional, cell-based; conditions: A549, 72 h
MIA PaCa-2 [4] = experiment: Antiproliferative activity against human MIA PaCa-2 cells harboring KRAS G12C mutant assessed as growth inhibition at 1 uM measured after 72 hrs by CCK8 assay relative to control; format: functional; conditions: for inhibition of growth at 1 µM: Homo sapiens, MIA PaCa-2, read-out: GI
A549 [5] = experiment: Antiproliferative activity against human A549 cells harboring KRAS G12S mutant assessed as growth inhibition at 10 uM measured after 72 hrs by SRB assay relative to control; format: functional; conditions: for inhibition of growth at 10 µM: Homo sapiens, A549, read-out: GI
A549 [6] = experiment: Antiproliferative activity against human A549 cells harboring KRAS G12S mutant assessed as growth inhibition at 1 uM measured after 72 hrs by SRB assay relative to control; format: functional; conditions: for inhibition of growth at 1 µM: Homo sapiens, A549, read-out: GI
MIA PaCa-2 [7] = experiment: Antiproliferative activity against human MIA PaCa-2 cells harboring KRAS G12C mutant assessed as growth inhibition at 10 uM measured after 72 hrs by CCK8 assay relative to control; format: functional; conditions: for inhibition of growth at 10 µM: Homo sapiens, MIA PaCa-2, read-out: GI
A549 [8] = experiment: Antiproliferative activity against human A549 cells harboring KRAS G12S mutant assessed as growth inhibition at 0.1 uM measured after 72 hrs by SRB assay relative to control; format: functional; conditions: for inhibition of growth at 0.1 µM: Homo sapiens, A549, read-out: GI
MIA PaCa-2 [9] = experiment: Antiproliferative activity against human MIA PaCa-2 cells harboring KRAS G12C mutant assessed as growth inhibition at 0.1 uM measured after 72 hrs by CCK8 assay relative to control; format: functional; conditions: for inhibition of growth at 0.1 µM: Homo sapiens, MIA PaCa-2, read-out: GI

SMILES	IC50 (MIA PaCa-2 [1]; Homo sapiens, MIA PaCa-2, 72 h)	IC50 [2]	inhibition of growth at 1 µM (MIA PaCa-2 [4])	inhibition of growth at 10 µM (A549 [5])	inhibition of growth at 1 µM (A549 [6])	inhibition of growth at 10 µM (MIA PaCa-2 [7])	inhibition of growth at 0.1 µM (A549 [8])	inhibition of growth at 0.1 µM (MIA PaCa-2 [9])	further results
C=CC(=O)N1CCN(c2nc(=O)n(-c3c(C(C)C)ncnc3C(C)C)c3c(F)c(-c4c(O)cccc4F)ncc23)[C@@H](C)C1	0.43 µM	1.81 µM							IC50 (NCI-H1975): 8.99 µM; IC50 (NCI-H358; Homo sapiens, NCI-H358, 72 h): 0.26 µM; IC50 (GTPase KRas): > 10 µM; IC50 (A549 [3]): 3.27 µM
C=CC(=O)N1C2CCC1CN(c1nc(=O)n(-c3c(C)ccnc3C(C)C)c3nc4c(cc13)oc1cccc(F)c14)C2	> 10 µM		14.5%	35.7%	9.32%	53.2%	4.85%	8.58%	
C=CC(=O)N1CCN(c2nc(=O)n(-c3c(C)ccnc3C(C)C)c3nc4c(cc23)oc2cccc(O)c24)[C@@H](C)C1			1.71%	23.1%	35.3%	9.78%	32.8%	1.41%	
C=C(C(=O)N1CCN(c2nc(=O)n(-c3c(C)ccnc3C(C)C)c3cc(-c4c(O)cccc4F)ncc23)[C@@H](C)C1)C(F)(F)F			18.1%	91.6%	6.65%	85.5%	2.29%	6.23%	
C=CC(=O)N1CCN(c2nc(=O)n(-c3c(C)ccnc3C(C)C)c3cc(-c4c(O)cccc4F)ncc23)[C@@H](C)C1			24.8%	52.7%	7.53%	64.2%	9.11%	4.05%	
C=CC(=O)N1CCN(c2nc(=O)n(-c3c(C)ccnc3C(C)C)c3nc4c(cc23)oc2ccc(C)cc24)[C@@H](C)C1	> 10 µM		42.7%	27.8%	1.74%	57.8%	2.95%	40.6%	
C=CC(=O)N1CCN(c2nc(=O)n(-c3c(C)ccnc3C(C)C)c3nc(-c4c(O)cccc4F)c(F)cc23)[C@@H](C)C1 [SOTORASIB]	0.029 µM	1.27 µM							IC50 (NCI-H1975): > 10 µM; growth inhibition (GI) (MIA PaCa-2 [4]): 64.63%; growth inhibition (GI) (A549 [5]): 24.09%; growth inhibition (GI) (A549 [6]): 5.81%; IC50 (NCI-H358; Homo sapiens, NCI-H358, 72 h): < 0.016 µM; growth inhibition (GI) (MIA PaCa-2 [7]): 59.49%; growth inhibition (GI) (A549 [8]): 4.13%; IC50 (A549 [3]): > 10 µM; growth inhibition (GI) (MIA PaCa-2 [9]): 49.49%
CC#CC(=O)N1CCN(c2nc(=O)n(-c3c(C)ccnc3C(C)C)c3cc(-c4c(O)cccc4F)ncc23)[C@@H](C)C1			19.7%	56.7%	3.57%	41.8%	3.69%	20.2%	
C=CC(=O)N1CCN(c2nc(=O)n(-c3c(C(C)C)ncnc3C(C)C)c3c(Cl)c(-c4c(O)cccc4F)ncc23)[C@@H](C)C1		> 10 µM							IC50 (GTPase KRas): > 10 µM
C=CC(=O)N1CCN(c2nc(=O)n(-c3c(C)ccnc3C(C)C)c3nc4c(cc23)oc2cccc(F)c24)[C@@H](C)C1			19.3%	28.6%	2.22%	48.7%	7.06%	35.3%	
C=CC(=O)N1CCN(c2nc(=O)n(-c3c(C(C)C)cccc3C(C)C)c3c(F)c(-c4c(O)cccc4F)ncc23)[C@@H](C)C1		> 10 µM							IC50 (GTPase KRas): > 10 µM
C=CC(=O)N1CCN(c2nc(=O)n(-c3c(C)ccnc3C(C)C)c3c(F)c(-c4c(O)cccc4F)ncc23)[C@@H](C)C1 (stereo in doubt; 26a)		1.87 µM							IC50 (MIA PaCa-2 [1]; mia paca-2): 0.53 µM; IC50 (NCI-H1975): > 10 µM; IC50 (NCI-H358; nci-h358): 0.26 µM; IC50 (GTPase KRas): > 10 µM; IC50 (A549 [3]): > 10 µM
Cc1ccnc(C(C)C)c1-n1c(=O)nc(N2CCN(C(=O)/C=C/CN(C)C)C[C@@H]2C)c2cc3oc4cccc(F)c4c3nc21			14.9%	2.64%	2.99%	32%	7.85%	1.88%	
C=CC(=O)N1CCN(c2nc(=O)n(-c3c(C)ccnc3C(C)C)c3nc(-c4c(O)cccc4F)ncc23)[C@@H](C)C1			8.56%	23%	-5.05%	49%	5.83%	5.39%	
C=CC(=O)N1CCN(c2ncnc3c(F)c(-c4c(O)cccc4F)c(Cl)cc23)CC1	1.06 µM		34.9%	31.2%	6.3%	62.5%	8.27%	21%	
C=CC(=O)N1CCN(c2nc(=O)n(-c3c(C)ccnc3C(C)C)c3c(F)c(-c4c(O)cccc4F)ncc23)[C@@H](C)C1 (stereo in doubt; 26aa)		1.79 µM							IC50 (MIA PaCa-2 [1]; mia paca-2): 0.6 µM; IC50 (NCI-H358; nci-h358): 0.3 µM; IC50 (GTPase KRas; sf9): > 10 µM
C=CC(=O)N1CCN(c2nc(=O)n(-c3c(C)ccnc3C(C)C)c3nc4c(cc23)oc2ccc(F)cc24)[C@@H](C)C1	> 10 µM		35.4%	24.6%	6.97%	52.8%	2.52%	15.9%	
C=CC(=O)N1CCN(c2nc(=O)n(-c3c(C)ccnc3C(C)C)c3c(F)c(-c4c(O)cccc4F)ncc23)[C@@H](C)C1 (stereo in doubt; 26ab)		3.57 µM							IC50 (MIA PaCa-2 [1]; mia paca-2): 1.5 µM; IC50 (NCI-H358; nci-h358): 0.88 µM; IC50 (GTPase KRas; sf9): > 10 µM
C=CC(=O)N1CCN(c2nc(=O)n(-c3c(C)ccnc3C(C)C)c3c(Cl)c(-c4c(O)cccc4F)ncc23)[C@@H](C)C1	2.7 µM	2.4 µM							IC50 (NCI-H1975): > 10 µM; IC50 (NCI-H358; Homo sapiens, NCI-H358, 72 h): 1.21 µM; IC50 (GTPase KRas): > 10 µM; IC50 (A549 [3]): > 10 µM
C=C(F)C(=O)N1CCN(c2nc(=O)n(-c3c(C)ccnc3C(C)C)c3cc(-c4c(O)cccc4F)ncc23)[C@@H](C)C1			29.2%	19%	5.95%	35%	5.24%	25.1%	
CC#CC(=O)N1CCN(c2nc(=O)n(-c3c(C)ccnc3C(C)C)c3nc4c(cc23)oc2cccc(F)c24)[C@@H](C)C1			14.2%	22.3%	4.36%	27.3%	-1.01%	0.49%	
C=CC(=O)N1CCN(c2nc(=O)n(-c3c(C)ccnc3C(C)C)c3nc4c(cc23)oc2cc(F)c(F)cc24)[C@@H](C)C1	7.97 µM		6.35%	21.1%	7.03%	75.2%	-5.33%	32.3%	

Reference: ChEMBL document CHEMBL4732119, “Design, synthesis and pharmacological evaluation of bicyclic and tetracyclic pyridopyrimidinone analogues as new KRAS inhibitors” (Eur J Med Chem, 2021)
